PubChem BioAssay (NCI)
Several values for one entry are separate records, joined by “and”; a condition that tells them apart may be missing. Equal entries are not always repeated.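 Tested at 5 concentrations; 48 h exposure; 96-well plates; endpoints linearly interpolated, else capped at highest concentration. At the GI50, growth is halved. The concentration for full growth arrest is given as TGI.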

Tests used:
Assay in all cases: NCI anticancer screen, dose series, 48 h
[1] = tested on: NCI-H522 lung
[2] = tested on: 786-0 renal
[3] = tested on: HCC-2998 colon
[4] = tested on: RXF 393 renal
[5] = tested on: HCT-116 colon
[6] = tested on: DU-145 prostate
[7] = tested on: NCI-H460 lung
[8] = tested on: MCF7 breast
[9] = tested on: LOX IMVI melanoma
[10] = tested on: CCRF-CEM leukemia

SMILES | GI50 [1] | TGI [1] | GI50 [2] | TGI [2] | GI50 [3] | TGI [3] | GI50 [4] | TGI [4] | GI50 [5] | TGI [5] | GI50 [6] | TGI [6] | GI50 [7] | TGI [7] | GI50 [8] | TGI [8] | GI50 [9] | TGI [9] | GI50 [10] | TGI [10]
BrC(Br)(Br)c1cnc2ccccc2n1 | 0.544 µM | 1.28 µM | 2.02 µM | 5 µM | 1.67 µM | 3.6 µM | 1.06 µM | 2.4 µM | 1.1 µM | 2.66 µM | 2.21 µM | 7.14 µM | 1.36 µM | 4.21 µM | 1.53 µM | 5.42 µM | 0.425 µM | 2.19 µM | 0.49 µM | 2.42 µM
O=C(O)c1ccc(S(=O)(=O)N=Nc2c(O)[nH]c3ccccc23)cc1 | – | > 100 µM | – | > 100 µM | – | > 100 µM | – | > 100 µM | – | > 100 µM | – | > 100 µM | – | > 100 µM | – | > 100 µM | – | > 100 µM | – | > 100 µM
COc1cccc2c1cc([N+](=O)[O-])c1c(C(=O)O)cc3c(c12)OCO3 | – | > 100 µM | 27.6 µM | > 100 µM | 3.91 µM | 18.9 µM and 9.62 µM | 18 µM | 40.6 µM and > 56.9 µM | – | > 80.6 µM | 23 µM | > 82.1 µM and 98.7 µM | 18.2 µM | 63.7 µM and > 100 µM | 30.7 µM | > 100 µM | 26.2 µM | > 100 µM | 28.2 µM | > 100 µM
O=C1NC(=O)C2(CCC(O)C2)c2cc[n+]([O-])cc21 (stereo unspecified) | – | > 100 µM | – | > 100 µM | – | > 100 µM | – | > 100 µM | – | > 100 µM | – | > 100 µM | – | > 100 µM | – | > 100 µM | – | > 100 µM | – | > 100 µM
COc1cc(OC)c(OC)cc1/C=C1\C=Cc2ccccc21 | – | 51.2 µM | – | > 100 µM | – | 28.4 µM | – | 49.7 µM | – | 21.9 µM | – | > 100 µM | – | 38 µM | – | > 100 µM | – | 33.4 µM | – | > 100 µM
CCCC(=O)NC(c1ccc2c(c1)OCO2)c1ccc2cccnc2c1O (stereo unspecified) | 1.63 µM | > 100 µM | 1.64 µM | 14.7 µM | 2.21 µM | > 100 µM | 1.47 µM | 7.54 µM | 0.387 µM | 56.1 µM | 2 µM | > 100 µM | 0.527 µM | 10.6 µM | 0.748 µM | > 100 µM | 0.808 µM | > 100 µM | 0.46 µM | > 100 µM
C=C1CC2(OC1=O)c1ccccc1C=Cc1ccccc12 | – | 3.35 µM | – | 6.16 µM | – | 13.5 µM | – | 8.12 µM | – | 5.4 µM | – | 23.6 µM | – | 25.4 µM | – | 6.54 µM | – | 4.1 µM | – | 6.58 µM
O=C1C(Cl)=C(Nc2cccc(C(F)(F)F)c2)C(=O)N1Cc1ccccc1Cl | 0.49 µM | 19.8 µM | 1.78 µM | 16.5 µM | 12.6 µM | 28 µM | 1.12 µM | 10.4 µM | 1.25 µM | 5.27 µM | 14 µM | 29.6 µM | 6.19 µM | 22.4 µM | 4.21 µM | > 31.8 µM | 1.41 µM | 3.75 µM | 1.23 µM | –
COC(=O)[C@@H](Cc1c[nH]c2ccccc12)NC(=O)/C=C/c1ccccc1 | 1.81 µM | 30.5 µM | 3.96 µM | > 100 µM | 2.65 µM | 8.56 µM | 1.5 µM | 4.58 µM | 3.36 µM | > 100 µM | 4.58 µM | > 100 µM | 3.26 µM | 15.1 µM | 3.2 µM | > 100 µM | 3.73 µM | > 100 µM | 3.45 µM | > 100 µM
COc1ccc2[nH]c(-c3cccc(N(C)C)c3)cc(=O)c2c1 | 0.407 µM | 0.526 µM and 2.56 µM | 0.539 µM | > 100 µM | 0.472 µM | 3.29 µM and 2.29 µM | – | 0.351 µM | 0.56 µM | – | 0.589 µM | – | 0.564 µM | > 100 µM | – | > 100 µM | 0.599 µM | – | – | 0.907 µM
O=C(O)c1ccc(-c2ccc(C(=O)O)cc2I)c(I)c1 | > 100 µM | > 100 µM | > 100 µM | > 100 µM | > 100 µM | > 100 µM | > 100 µM | > 100 µM | > 100 µM | > 100 µM | > 100 µM | > 100 µM | > 100 µM | > 100 µM | > 100 µM | > 100 µM | > 100 µM | > 100 µM | > 100 µM | > 100 µM
CCCCCC(=O)OCC(=O)O[C@@H]1C[C@]2(C(C)C)O[C@@]1(C)[C@@H]1CC[C@@H](C)[C@H]1[C@@H]2OC(=O)/C=C/c1ccccc1 | 38.2 µM | > 76.5 µM | 0.789 µM | 13.6 µM | > 62.3 µM | > 100 µM | 0.127 µM | > 6.51 µM | 32.2 µM | > 100 µM | > 48.4 µM | > 72.4 µM | > 60.6 µM | > 94.8 µM | > 32.9 µM | > 100 µM | > 49.9 µM | > 72.6 µM | > 37.6 µM | > 100 µM
